Molecular target: T1, chicken gizzard smooth muscle myosin subfragment-1 chemically crosslinked to cardiac or skeletal actin (Gallus gallus, UniProt P10587)
T1 construct: chicken gizzard smooth muscle myosin subfragment-1; from tissue; host or cells: chicken gizzard
Test: Smooth muscle myosin ATPase dose response assay (pyruvate kinase/horseradish peroxidase/pyruvate oxidase-coupled, amplex red fluorescence)
Type: biochemical
Conditions: read-out: IC50 Arithmetic Mean
Summary of the method: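 EDC/NHS-crosslinked S1–actin, amount set per prep by rate titration. Buffer: 12 mM K-PIPES pH 7.00 (22° C), 100 mM KCl, 2 mM MgCl2, 0.15 mM ATP, 0.1 mM PEP, 2 mM KPi, 0.1 mM amplex red. Read ex 480/em 615 nm; IC50 = midpoint, 4-param Hill fit.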

T1 sequence (P02607 2-151): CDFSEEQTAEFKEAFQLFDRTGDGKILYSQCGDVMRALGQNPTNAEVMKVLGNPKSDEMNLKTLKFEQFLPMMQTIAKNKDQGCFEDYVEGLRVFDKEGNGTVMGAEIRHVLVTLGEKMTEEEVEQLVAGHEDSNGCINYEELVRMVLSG
T1 sequence (P10587 84-789): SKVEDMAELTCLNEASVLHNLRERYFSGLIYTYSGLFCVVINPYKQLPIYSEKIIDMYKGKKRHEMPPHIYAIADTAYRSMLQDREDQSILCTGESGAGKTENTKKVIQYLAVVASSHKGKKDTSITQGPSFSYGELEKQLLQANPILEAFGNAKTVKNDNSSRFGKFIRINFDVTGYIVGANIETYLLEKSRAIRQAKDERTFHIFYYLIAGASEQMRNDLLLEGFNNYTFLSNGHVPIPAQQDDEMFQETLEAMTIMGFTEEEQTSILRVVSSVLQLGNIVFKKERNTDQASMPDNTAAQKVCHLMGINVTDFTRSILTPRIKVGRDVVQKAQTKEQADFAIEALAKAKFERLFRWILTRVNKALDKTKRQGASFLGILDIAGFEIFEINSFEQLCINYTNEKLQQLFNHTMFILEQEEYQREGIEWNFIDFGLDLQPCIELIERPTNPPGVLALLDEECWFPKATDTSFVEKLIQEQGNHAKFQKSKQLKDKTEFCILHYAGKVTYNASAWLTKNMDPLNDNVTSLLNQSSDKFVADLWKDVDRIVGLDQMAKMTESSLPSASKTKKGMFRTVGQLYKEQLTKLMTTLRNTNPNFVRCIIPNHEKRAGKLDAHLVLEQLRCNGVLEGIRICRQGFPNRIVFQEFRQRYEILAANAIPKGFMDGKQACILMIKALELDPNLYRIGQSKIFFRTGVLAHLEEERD

Row | Compound | IC50 [nM]
1 | N#Cc1ccccc1-c1ccc(C(=O)NCC2CCCN(CCN=[N+]=[N-])C2=O)c(NCCc2cccc(F)c2)n1 (stereo not shown) [(6-(2-cyanophenyl)-2-{[2-(3-fluorophenyl)ethyl]amino}(3-pyridyl))-N-{[1-(3-diazo-3-azaprop-3-enyl)-2-oxo(3-piperidyl)]methyl}carboxamide] | 412
2 | C[C@@H](NC(=O)c1ccc(-c2ccccc2C#N)nc1NCCc1cccc(F)c1)C(N)=O | 532
3 | Cn1cc(-c2nc(NCCc3cccc(F)c3)c(C(=O)NCc3cccnc3CNC(=O)OC(C)(C)C)cc2C#N)cn1 [N-[(2-{[(tert-butoxy)carbonylamino]methyl}(3-pyridyl))methyl](5-cyano-2-{[2-(3-fluorophenyl)ethyl]amino}-6-(1-methylpyrazol-4-yl)(3-pyridyl))carboxamide] | 750
4 | C[C@@H](CO)CNC(=O)c1cc(F)c(-c2cnn(C)c2)nc1NCCc1cccc(F)c1 [N-((2R)-3-hydroxy-2-methylpropyl)(5-fluoro-2-{[2-(3-fluorophenyl)ethyl]amino}-6-(1-methylpyrazol-4-yl)(3-pyridyl))carboxamide] | 50
5 | O=C(NCc1cccnc1)c1cc(CO)c(-c2ccccc2)nc1NCCc1cccc(F)c1 [(2-{[2-(3-fluorophenyl)ethyl]amino}-5-(hydroxymethyl)-6-phenyl(3-pyridyl))-N-(3-pyridylmethyl)carboxamide] | 625
6 | N#Cc1ccccc1-c1ccc(C(=O)N[C@H](CN)C(N)=O)c(NCCc2cccc(F)c2)n1 [N-((1R)-2-amino-1-carbamoylethyl)(6-(2-cyanophenyl)-2-{[2-(3-fluorophenyl)ethyl]amino}(3-pyridyl))carboxamide] | 538
7 | C[C@@H](CNC(=O)c1ccc(-c2ccccc2C#N)nc1NCCc1cccc(F)c1)NC(=O)CCN | 3560
8 | NC(=O)CCNC(=O)c1ccc(-c2ccc(CO)s2)nc1NCCc1cccc(F)c1 [N-(2-carbamoylethyl)(2-{[2-(3-fluorophenyl)ethyl]amino}-6-[5-(hydroxymethyl)(2-thienyl)](3-pyridyl))carboxamide] | 549
9 | Cn1cc(-c2nc(NCCc3cccc(F)c3)c(C(=O)NC[C@H]3CCN3C(=O)COC(=O)CNC(=O)OC(C)(C)C)cc2F)cn1 [2-((2R)-2-{[(5-fluoro-2-{[2-(3-fluorophenyl)ethyl]amino}-6-(1-methylpyrazol-4-yl)(3-pyridyl))carbonylamino]methyl}azetidinyl)-2-oxoethyl 2-[(tert-butoxy)carbonylamino]acetate] | 191
10 | C[C@H](CO)CNC(=O)c1cc(F)c(-c2cnn(C)c2)nc1NCCc1cccc(F)c1 [N-((2S)-3-hydroxy-2-methylpropyl)(5-fluoro-2-{[2-(3-fluorophenyl)ethyl]amino}-6-(1-methylpyrazol-4-yl)(3-pyridyl))carboxamide] | 90
11 | N#Cc1ccccc1-c1ccc(C(=O)NC[C@@H](CO)NC(=O)CN)c(NCCc2cccc(F)c2)n1 [N-((1S)-1-{[(6-(2-cyanophenyl)-2-{[2-(3-fluorophenyl)ethyl]amino}(3-pyridyl))carbonylamino]methyl}-2-hydroxyethyl)-2-aminoacetamide] | 249
12 | N#Cc1ccccc1-c1ccc(C(=O)NC[C@H]2CCCCN2C(=O)OCCN)c(NCCc2cccc(F)c2)n1 [2-aminoethyl (2R)-2-{[(6-(2-cyanophenyl)-2-{[2-(3-fluorophenyl)ethyl]amino}(3-pyridyl))carbonylamino]methyl}piperidinecarboxylate] | 91
13 | CC(C)(N)CNC(=O)c1ccc(-c2ccccc2C#N)nc1NCCc1cccc(F)c1 [N-(2-amino-2-methylpropyl)(6-(2-cyanophenyl)-2-{[2-(3-fluorophenyl)ethyl]amino}(3-pyridyl))carboxamide] | 666
14 | CNC(=O)CNC(=O)c1ccc(-c2cn[nH]c2)nc1NCCc1cccc(F)c1 [2-[(2-{[2-(3-fluorophenyl)ethyl]amino}-6-pyrazol-4-yl(3-pyridyl))carbonylamino]-N-methylacetamide] | 328
15 | CC(C)(C)OC(=O)NCCCC(=O)N1CCC[C@@H]1CNC(=O)c1cc(C#N)c(-c2cn[nH]c2)nc1NCCc1cccc(F)c1 [N-[((2R)-1-{4-[(tert-butoxy)carbonylamino]butanoyl}pyrrolidin-2-yl)methyl](5-cyano-2-{[2-(3-fluorophenyl)ethyl]amino}-6-pyrazol-4-yl(3-pyridyl))carboxamide] | 3420

The next lines start with the values.

Row | IC50 [nM] | Compound
16 | 7 | N#Cc1ccccc1-c1ccc(C(=O)NCc2cccc(NCCN)n2)c(NCCc2cccc(F)c2)n1 [N-({6-[(2-aminoethyl)amino](2-pyridyl)}methyl)(6-(2-cyanophenyl)-2-{[2-(3-fluorophenyl)ethyl]amino}(3-pyridyl))carboxamide]
17 | 927 | CC1(C)OCC(CNC(=O)c2cc(F)c(-c3cn[nH]c3)nc2NCCc2cccc(F)c2)CO1 [N-[(2,2-dimethyl(1,3-dioxan-5-yl))methyl](5-fluoro-2-{[2-(3-fluorophenyl)ethyl]amino}-6-pyrazol-4-yl(3-pyridyl))carboxamide]
18 | 1020 | N#Cc1ccccc1-c1ccc(C(=O)NC[C@@H]2CCCCN2)c(NCCc2cccc(F)c2)n1 [N-[((2S)(2-piperidyl))methyl](6-(2-cyanophenyl)-2-{[2-(3-fluorophenyl)ethyl]amino}(3-pyridyl))carboxamide]
19 | 90 | NCCC(=O)N1CCC[C@@H]1CNC(=O)c1cc(F)c(-c2cn[nH]c2)nc1NCCc1cccc(F)c1 [N-{[(2R)-1-(3-aminopropanoyl)pyrrolidin-2-yl]methyl}(5-fluoro-2-{[2-(3-fluorophenyl)ethyl]amino}-6-pyrazol-4-yl(3-pyridyl))carboxamide]
20 | 58 | N#Cc1cc(C(=O)NCc2cccnc2CN)c(NCCc2cccc(F)c2)nc1-c1cn[nH]c1 [N-{[2-(aminomethyl)(3-pyridyl)]methyl}(5-cyano-2-{[2-(3-fluorophenyl)ethyl]amino}-6-pyrazol-4-yl(3-pyridyl))carboxamide]
21 | 141 | Cn1cc(-c2nc(NCCc3cccc(F)c3)c(C(=O)NC[C@H]3CCN3C(=O)C(C)(C)O)cc2F)cn1 [N-{[(2R)-1-(2-hydroxy-2-methylpropanoyl)azetidin-2-yl]methyl}(5-fluoro-2-{[2-(3-fluorophenyl)ethyl]amino}-6-(1-methylpyrazol-4-yl)(3-pyridyl))carboxamide]
22 | 3380 | Cc1ccc(-c2ccc(C(=O)NCc3cccnc3)c(NCCc3ccccn3)n2)cc1C [{6-(3,4-dimethylphenyl)-2-[(2-(2-pyridyl)ethyl)amino](3-pyridyl)}-N-(3-pyridylmethyl)carboxamide]
23 | 43 | NCc1ncccc1CNC(=O)c1ccc(-c2cc[nH]n2)nc1NCCc1cccc(F)c1 [N-{[2-(aminomethyl)(3-pyridyl)]methyl}(2-{[2-(3-fluorophenyl)ethyl]amino}-6-pyrazol-3-yl(3-pyridyl))carboxamide]
24 | 1450 | CS(=O)(=O)N1CCC[C@@H]1CNC(=O)c1ccc(-c2ccccc2C#N)nc1NCCc1cccc(F)c1 [N-{[(2R)-1-(methylsulfonyl)pyrrolidin-2-yl]methyl}(6-(2-cyanophenyl)-2-{[2-(3-fluorophenyl)ethyl]amino}(3-pyridyl))carboxamide]
25 | 1460 | Cn1cc(-c2nc(NCCc3cccc(F)c3)c(C(=O)NC[C@H]3CCCN3C(=O)OC(C)(C)C)cc2F)cn1 [tert-butyl (2R)-2-{[(5-fluoro-2-{[2-(3-fluorophenyl)ethyl]amino}-6-(1-methylpyrazol-4-yl)(3-pyridyl))carbonylamino]methyl}pyrrolidinecarboxylate]
